Data as given in US8008351B2, “Methods for prophylaxis or treatment of conditions associated with cortical spreading depression” (UCB Pharma GmbH, priority 2004, dated 2011).
“Also recorded” adds a separate entry of the source.

Columns and labels:
[1] = test system: Calcitonin gene-related peptide (CGRP); assay: CSD-induced CGRP release in jugular vein blood (CGRP EIA); format: in vivo, rat (Wistar); settings: for CGRP release expressed as percent of baseline levels, 10-15 min: 10-15 min after induction of CSD; for CGRP release expressed as percent of baseline levels, 10-15 min / CGRP release expressed as percent of baseline levels, 20-25 min / CGRP release expressed as percent of baseline levels, Baseline: n = 5; for CGRP release expressed as percent of baseline levels, 20-25 min: 20-25 min after induction of CSD; for CGRP release expressed as percent of baseline levels, Baseline: baseline (before CSD)
Description: (§1) All animal experiments were carried out according to the National Institute of Health (NIH) guidelines for the care and use of laboratory animals, and approved by the Ethical Committee of the National Laboratory Animal Center, Kuopio, Finland. Altogether 77 adult male Wistar rats, purchased from Harlan, Netherlands, and weighing 250-350 g were used for the experiment. Animals were housed at a standard temperature (22±1° C.) and in a light-controlled environment (lights on from 7 am to 9 pm) with ad libitum access to food and water. Animals were grouped as follows: • 15 rats treated with SPM 927 (3 mg/kg; i.p.) 30 min before the CSD episode • 15 rats treated with SPM 927 (10 mg/kg; i.p.) 30 min before the CSD episode • 15 rats treated with SPM 927 (30 mg/kg; i.p.) 30 min before the CSD episode • 15 rats treated with Valproic acid (250 mg/kg; i.p.) 30 min before the CSD episode • 15 rats treated with Vehicle (2 ml/kg; i.p.) 30 min before CSD episode • 2 sham rats without CSD episode (topical NaCl application) and without any treatment Subgroups: • 10 rats to DC-potential, CBF, and blood pH, pO2, pCO2, glucose and mean arterial pressure analysis (rats killed at 30 min after CSD, brains fresh-frozen) • 5 rats to jugular vein cannulation (CGRP sampling) and dural as well as cortical CGRP immunocytochemistry (rats killed at 15 min after CSD)
Following anesthesia (before CSD), a catheter was placed into the right jugular vein. 0.250 ml of blood was taken through the catheter for baseline measurement. For time course experiments further samples were taken at 10-15 and 20-25 min following initiation of CSD. Samples were stored in prepared Eppendorf tubes containing the protease inhibitors aprotinin (1000 KU, Bayer, Germany) and Pefabloc™ (1 mg/ml, Boehringer Mannheim, Germany), immediately cold centrifuged and stored at −80° C. The samples were acidified with trifluoroacetic acid and centrifuged at 6000 g for 20 min. The supernatant was extracted with Sep-Pak C-18 cartridges (Millipore, Waters, UK). Eluates were concentrated (dried) and dissolved in EIA buffer. CGRP concentrations were detected using a commercial CGRP EIA kit (S-3006, Bachem Distribution GmbH) according to the manufacturer's instructions.
(§2) All values were calculated as mean±standard deviation (SD) and differences were considered to be statistically significant as the P<0.05 level. Statistical analysis was performed using StatsDirect statistical software. Differences among means were analyzed by using one-way analysis of variance (ANOVA). Dunnet's post-hoc test was applied for multiple comparisons with a control group.

[2] = test system: rat model of migraine (Cortical Spreading Depression, CSD); assay: Cortical spreading depression (CSD) rat model of migraine: number of KCl-induced direct current (DC) potentials; format: in vivo, rat (Wistar); settings: for Number of DC: n = 10, mean ± SD
Description: as §1
Rats were anaethetized with Equithesin (3 ml/kg) and placed in a stereotactic frame. The rectal temperature was maintained at 37.0±1.0° C. with a homeothermic blanket system. A polyethylene catheter was inserted into the femoral artery in order to monitor arterial blood pressure and take blood samples for arterial pH, pO2, pCO2 and glucose. The arterial blood gases were measured with i-STAT portable clinical analyzer (I-STAT), arterial blood pressure monitored with Cardiocap II blood pressure analyzer (datex-Ohmeda, Helsinki, Finland) and blood glucose with standard glucose meter (Arkray, Japan). The measurements were taken 10 min before as well as 5 min after the CSD episode. The skin was opened by a medical incision and retracted laterally. Three skull burr holes were drilled in a row unilaterally. One was placed over the frontal cortex, the second frontoparietally and the third one parietally (FIG. 1). A laser-Doppler flow probe (Oxyflow, Oxford Optronics, UK) to monitor CBF and a non-invasive tungsten electrode for measuring direct current (DC) potential shifts were placed in the frontal and frontoparietal burr holes on the intact dura, respectively. The laser-Doppler flow probe was positioned in an area free of large pial and dural vessels to minimize a large-vessel contribution to the signal. For the DC-potential measurement, a reference electrode was fixed in the neck. CSDs were elicited unilaterally by placing a KCl-soaked (3.0 M) piece of filter paper on the parietal opening for 5 min. The KCl exposure was terminated by flushing the opening with saline and placing a dry piece of filter paper on the opening. The CBF and DC-potentials were monitored continuously starting from 5 minutes before CSD and continuing up to 30 min after the KCl exposure.
as §2, with “Dunnet's post-hoc test was applied for multiple comparisons with a control group.” left out

[3] = rat model of migraine, pre-treatment, 3 doses

SMILES: COC[C@@H](NC(C)=O)C(=O)NCc1ccccc1 [SPM 927, (R)-2-acetamide-N-benzyl-3-methoxypropionamide]
- CGRP release expressed as percent of baseline levels, 10-15 min ([1]; 3 mg/kg i.p.): 126 ± 45%
- CGRP release expressed as percent of baseline levels, 20-25 min ([1]; 3 mg/kg i.p.): 35 ± 7%
- CGRP release expressed as percent of baseline levels, Baseline ([1]; 3 mg/kg i.p.): 100 ± 0%
- CGRP release expressed as percent of baseline levels, 10-15 min ([1]; 10 mg/kg i.p.): 114 ± 27%
- CGRP release expressed as percent of baseline levels, 20-25 min ([1]; 10 mg/kg i.p.): 66 ± 31%
- CGRP release expressed as percent of baseline levels, Baseline ([1]; 10 mg/kg i.p.): 100 ± 0%
- CGRP release expressed as percent of baseline levels, 10-15 min ([1]; 30 mg/kg i.p.): 92 ± 53%
- CGRP release expressed as percent of baseline levels, 20-25 min ([1]; 30 mg/kg i.p.): 71 ± 12%
- CGRP release expressed as percent of baseline levels, Baseline ([1]; 30 mg/kg i.p.): 100 ± 0%
- Effect on CSD-induced CGRP release / CGRP levels in blood (in words) [1, 3]: reduces; also recorded: significant suppression
- Number of DC ([2]; 3 mg/kg i.p. 30 min before CSD episode): 4.2 ± 0.4
- Number of DC ([2]; 10 mg/kg i.p. 30 min before CSD episode): 3.3 ± 0.4
- Number of DC ([2]; 30 mg/kg i.p. 30 min before CSD episode): 3.5 ± 0.6
- Effect on CSD / number of CSD-induced DC-potentials (in words) [2, 3]: reduces; also recorded: significant suppression

SMILES: CCCC(CCC)C(=O)O [Valproic acid, reference compound]
- CGRP release expressed as percent of baseline levels, 10-15 min ([1]; 250 mg/kg i.p.): 56 ± 8%
- CGRP release expressed as percent of baseline levels, 20-25 min ([1]; 250 mg/kg i.p.): 71 ± 15%
- CGRP release expressed as percent of baseline levels, Baseline ([1]; 250 mg/kg i.p.): 100 ± 0%
- Number of DC ([2]; 250 mg/kg i.p. 30 min before CSD episode): 3.7 ± 0.3
